Measurements published in patent US8487079B2, “Use of mitochondria-targeted electron scavengers as anti-inflammatory agents” (University of Pittsburgh—Of the Commonwealth System of …, priority 2007, dated 2013).

What was measured:
[1] = tested on: LPS-induced NO production in RAW 264.7 cells; experiment: Nitric oxide secretion (nitrite assay) by LPS-stimulated RAW 264.7 cells; type: cell-based, murine; details: for NO secretion by LPS-stimulated RAW 264.7 cells: graded concentrations, added 1 h before LPS, 24 hours
Experimental: RAW 264.7 cells were obtained from the American Type Culture Collection (Manassas, Va.). Cells were maintained in DMEM supplemented with 10% FBS, 100 units/ml penicillin, and 100 μg/ml streptomycin at 37° C. in a humidified incubator (5% CO2, 95% air). For stimulation experiments, cells were transferred to 24-well polystyrene culture plates (Corning Life Sciences, Corning, N.Y.) at 0.3 or 1×10^6 cells/well (depending on the experiment) in 1 ml of medium per well. After overnight incubation, the medium was removed and replaced with DMEM containing 0.25% FBS. Cells were stimulated by adding 0.1 μg/ml to 1 μg/ml Escherichia coli 0111:B4 lipopolysaccharide (LPS) in the presence or absence of graded concentrations of XJB-5-131 or XJB-5-208.
(§1) Nitrite (NO2^−) concentrations were measured in cell supernatants and blood serum as an indicator of nitric oxide (.NO) production, where .NO readily oxidize into nitrites (NO2^−) and nitrates (NO3^−). The total concentration of .NO was determined by reducing NO3^− to NO2^− using cadmium and detecting NO2^− using the Greiss reagent and potassium nitrite as a standard.
(§2) Samples (200 μL) were incubated with 30% zinc sulfate to precipitate proteins and then centrifuged (4° C., 12,000 g, 5 min). Supernatants were added to 0.6 g activated cadmium (previously washed twice with each deionized H2O, 0.1 M HCl, and 0.1 NH4OH) and allowed to shake overnight at room temperature. The supernatants were removed. Greiss reagent (100 μL) was mixed with an equal volume of supernatant. Reaction between the Greiss reagent and NO2^−) yielded an azo dye that can be detected spectrophotometrically. Absorbance was measured at 550 nm using a Packard Fusion™ microplate reader (PerkinElmer, Wellesley, Mass.).
RAW 264.7 murine macrophage-like cells were incubated in the presence or absence of graded concentrations of XJB-5-131 or XJB-5-208. Concentrations of either XJB-5-131 or XJB-5-208 were dissolved in dimethyl sulfoxide (DMSO). During these experiments, the highest concentration of DMSO remaining in the cell culture was 0.18% (v/v). […]

[2] = tested on: iNOS mRNA in RAW 264.7 cells; experiment: iNOS mRNA expression in LPS-stimulated RAW 264.7 cells (real-time RT-PCR); type: cell-based, mouse; details: LPS 100 ng/ml, 24 hours; for LPS-induced iNOS mRNA up-regulation: RT-PCR
Experimental: RAW 264.7 cells and liver tissue specimens were lysed with TRI-Reagent® (Molecular Research Center, Cincinnati, Ohio). Bromochloropropane (0.5 mL) was added in order to extract total RNA. After vigorous agitation and centrifugation (4° C., 12,000 g, 12 min), the aqueous phase containing RNA was collected. The RNA was precipitated with isopropanol (0.5 mL). The pellet was washed with 75% ethanol (1 mL) and centrifuged (4° C., 12,000 g, 5 min) twice, and then dissolved in RNA-free water. Total RNA was quantified using UV spectrophotometry (GeneQuant™ pro, GE Healthcare). Extracted RNAs (1 μg/reaction) were converted to single-strand cDNAs in a 20 μL volume reaction, using the Reverse Transcriptase System Kit (Promega, Madison, Wis.) as directed by the manufacturer. In a Gene Amp® PCR System 9700 (Applied Biosystems, Foster City, Calif.), the mixture was heated to 70° C. for 10 min, maintained at 42° C. for 30 min, and then heated to 95° C. for 5 min to terminate the reaction. TaqMan® Gene Expression Assays (Applied Biosystems) for 18S (endogenous control) and mouse iNOS were used. Reaction mixtures for PCR were assembled as follows: 10 μL TaqMan® Universal PCR Master Mix (Applied Biosystems), 1 μL of each assay, 5 μL cDNA template, and 3 μL of water. PCR reactions were performed in a thermocycler 7300 Real Time PCR System (Applied Biosystems) under recommended conditions (50° C. for 2 min; 95° C. for 10 min; 95° C. for 15 s; 60° C. for 1 min). The two last steps were repeated for 40 cycles. […] The ΔC^T relative quantification method was used to calculate mRNA levels for iNOS in the samples, as previously described (Scharte M, Han X, Bertges D J et al. Cytokines induce HIF-1 DNA binding and the expression of HIF-1-dependent genes in cultured rat enterocytes. Am J Physiol Gastrointest Liver Physiol 2003, 284:G373-G384). […]
RAW 264.7 cells were incubated in presence or absence of graded concentrations of XJB-5-131 or XJB-5-208. […] After 24 hours, steady-state levels of iNOS mRNA were measured using real-time quantitative RT-PCR.

[3] = tested on: HMGB1 secretion by RAW 264.7 cells; experiment: HMGB1 secretion by LPS-stimulated RAW 264.7 cells (Western blot); type: cell-based, murine; details: LPS 1 μg/ml, 48 or 72 h, Western blot of supernatant
Experimental: Equal volumes of cell culture supernatants were mixed with Laemmli buffer (20% glycerol, 10% beta-mercaptoethanol, 5% SDS, 0.2 M Tris.HCl, pH 6.8, and 0.4% bromophenol blue). After boiling for 10 min, the samples were subjected to 10% SDS-polyacrylamide gel electrophoresis. The resolved proteins were transferred to Hybond™-P polyvinylidene difluoride membranes (GE Healthcare, Chalfont St. Giles, UK), and blocked with bovine lacto-transfer optimizer buffer (1×PBS, 5% nonfat milk, and 0.05% Tween® 20) for 1 h. The membranes were incubated overnight at 4° C. with a 1:2000 dilution of rabbit polyclonal anti-HMGB1 antibody (generously provided by Dr. Michael T. Lotze, University of Pittsburgh) in blocking buffer. After washing three times in 1×PBST (1×PBS with 0.3% Triton X-100), immunoblots were exposed at room temperature for 1 h to a 1:20,000 dilution of horseradish peroxidase-conjugated goat anti-rabbit secondary antibody (Sigma-Aldrich, St. Louis, Mo.). After washing three times with 1×PBST, the membranes were illuminated with the ECL Plus™ substrate (GE Healthcare) and the X-ray films exposed, according to the manufacturer's instructions.
RAW 264.7 cells were cultured in the absence or presence of LPS (1 μg/ml). Some cells were co-incubated with graded concentrations of XJB-5-131. […]

[4] = tested on: C57B1/6J mice challenged with LPS; experiment: Plasma nitrite/nitrate in LPS-challenged mice; type: in vivo; parameters: unit not given here; details: 2 μmol/kg 60 min before i.p. LPS 15 mg/kg, blood 24 h after LPS, LPS alone 321.8±70.1, control 41.8±7.0, mean±SEM, p<0.05
Experimental: as §1, §2
All experiments using mice followed the guidelines for the use of experimental animals of the U.S. National Institutes of Health and were approved by the Institutional Animal Care and Use Committee at the University of Pittsburgh. […]

[5] = tested on: iNOS mRNA in hepatic tissue of LPS-challenged mice; experiment: Hepatic iNOS mRNA expression in LPS-challenged mice; type: in vivo; details: 2 μmol/kg 1 h before i.p. LPS 15 mg/kg, 24 h after LPS, RT-PCR
Experimental: RAW 264.7 cells and liver tissue specimens were lysed with TRI-Reagent® (Molecular Research Center, Cincinnati, Ohio). Bromochloropropane (0.5 mL) was added in order to extract total RNA. After vigorous agitation and centrifugation (4° C., 12,000 g, 12 min), the aqueous phase containing RNA was collected. The RNA was precipitated with isopropanol (0.5 mL). The pellet was washed with 75% ethanol (1 mL) and centrifuged (4° C., 12,000 g, 5 min) twice, and then dissolved in RNA-free water. Total RNA was quantified using UV spectrophotometry (GeneQuant™ pro, GE Healthcare). Extracted RNAs (1 μg/reaction) were converted to single-strand cDNAs in a 20 μL volume reaction, using the Reverse Transcriptase System Kit (Promega, Madison, Wis.) as directed by the manufacturer. […] The ΔC^T relative quantification method was used to calculate mRNA levels for iNOS in the samples, as previously described (Scharte M, Han X, Bertges D J et al. Cytokines induce HIF-1 DNA binding and the expression of HIF-1-dependent genes in cultured rat enterocytes. Am J Physiol Gastrointest Liver Physiol 2003, 284:G373-G384). […]
Mice were randomly pretreated with a solution containing XJB-5-131 (2 μmol/kg) or a similar volume (2 ml/kg) of vehicle, a 67:33 (v/v) mixture of DMSO and normal saline. […] Subsequently, iNOS mRNA expression was measured, using quantitative real-time RT-PCR. […]

Molecule | IC50 ([1]; Mus musculus, RAW264.7, 24 h, RAW 264.7 cells, LPS 100 or 1000 ng/ml, NO2- plus NO3- in supernatant, approximate, read-out: IC50 for inhibition of LPS-induced NO production) | NO secretion by LPS-stimulated RAW 264.7 cells [1] | Potency in inhibiting LPS-induced iNOS up-regulation, relative to XJB-5-208 [2] | LPS-induced iNOS mRNA up-regulation [2] | LPS-induced HMGB1 secretion [3] | concentration of nitrites within blood plasma [4] | iNOS expression in liver samples [5]
CC(C)C[C@@H](/C=C/[C@H](Cc1ccccc1)C(=O)N1CCC[C@H]1C(=O)N[C@H](C(=O)N[C@@H](CCCNC(=O)OCc1ccccc1)C(=O)NC1CC(C)(C)N([O])C(C)(C)C1)C(C)C)NC(=O)OC(C)(C)C [XJB-5-131, N-Boc-Leu-[(E)-CH═CH]-^DPhe-Pro-Val-Orn(Cbz)-N-TEMPO] | ~3 µM | significantly reduced | more potent | inhibited LPS-induced iNOS up-regulation | inhibited LPS-induced HMGB1 secretion in a concentration-dependent fashion | 179.5±34.6 | attenuated iNOS expression in liver samples
N-Boc-Leu-[(E)-CH═CH]-^DPhe-N-TEMPO [XJB-5-208] | – | significantly reduced | – | inhibited LPS-induced iNOS up-regulation | – | – | –
